Measurements taken from patent publication US20220009906A1, “ISOINDOLIN-1-ONE DERIVATIVES USEFUL AS GRK2 INHIBITORS” (priority 2020, published 2022).

Each compound was assayed against T1, GRK2 (Homo sapiens, UniProt P25098) (assay: hGRK2 LANCE Ultra In Vitro Assay). Conditions: Biological Example 1 GRK2 Lancer IC50 (μM), 10 nM GRK2; 30 or 600 μM ATP (not stated which); multiple measurements listed individually.
T1 sequence (P25098 1-689): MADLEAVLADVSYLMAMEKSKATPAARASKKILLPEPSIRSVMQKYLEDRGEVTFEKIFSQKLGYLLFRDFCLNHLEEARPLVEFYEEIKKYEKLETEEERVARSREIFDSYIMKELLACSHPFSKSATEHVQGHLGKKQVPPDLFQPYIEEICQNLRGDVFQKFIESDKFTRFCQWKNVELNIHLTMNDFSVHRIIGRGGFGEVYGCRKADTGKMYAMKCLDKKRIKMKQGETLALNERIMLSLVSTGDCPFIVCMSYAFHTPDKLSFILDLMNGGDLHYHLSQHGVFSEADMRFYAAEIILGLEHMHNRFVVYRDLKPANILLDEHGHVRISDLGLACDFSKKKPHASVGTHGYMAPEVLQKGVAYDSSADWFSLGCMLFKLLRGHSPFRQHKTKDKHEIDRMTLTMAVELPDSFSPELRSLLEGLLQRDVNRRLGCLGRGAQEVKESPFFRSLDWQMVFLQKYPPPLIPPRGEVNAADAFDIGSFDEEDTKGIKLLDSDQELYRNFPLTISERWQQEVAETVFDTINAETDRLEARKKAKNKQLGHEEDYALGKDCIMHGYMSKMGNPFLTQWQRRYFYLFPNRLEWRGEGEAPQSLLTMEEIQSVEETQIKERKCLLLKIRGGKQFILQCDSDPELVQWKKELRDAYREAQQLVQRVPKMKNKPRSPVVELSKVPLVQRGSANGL
Type: biochemical
Description: hGRK2 LANCE Ultra In Vitro Assay
G-protein coupled receptor kinases (GR Kinases) desensitize activated G-protein coupled receptors (GPCRs), by phosphorylation of cytoplasmic loops or carboxyl-terminal tails of GPCRs. GRK2 is one of the 6 different GR kinases and is implicated in heart failure and diabetes.
This assay is sensitive and requires as low as 10 nM enzyme, in a total volume of 10 μL. In addition, the ATP concentration can be varied over a broad range, without interfering with the assay or changing the assay condition. […] Testing inhibitors routinely at both high and low ATP concentrations also enables identification of potential non-ATP competitive inhibitors.
Paroxetine was used as the reference compound in this assay.
Test compounds were dissolved in DMSO at 1 mM and were 3-fold serial diluted. The compound DMSO solutions were then added (100 nL) into a plate well using an acoustic dispenser. To each well was then added 20 nM GRK2 (5 μL) in assay buffer (20 mM HEPES, pH 7.5, 10 mM MgCl2, 0.001% Tween-20®). The plate was sealed and centrifuged at 1000 rpm for 1 min. The plate and wells containing a mixture of GRK2 and test compound were incubated at ambient temperature for 30 min (prior to initializing the enzymatic reaction).
Enzyme reactions were initiated by the addition of 4.9 μL Substrates/Eu-Ab mix to each well. […] Final concentrations of reagents in the assays were as follows: 20 mM HEPES, pH 7.5; 10 mM MgCl2; 0.001% Tween-20® (w/v); 30 or 600 μM ATP; 200 nM ULight-peptide; 4 nM Eu-Ab; 10 nM GRK2; and 1% DMSO.
The plates were sealed and centrifuged at 1000 rpm for 1 min. For reactions at low ATP concentration (30 μM), reaction mixtures were incubated at ambient temperature for 120 min. For reactions at high ATP concentration (600 μM), reaction mixtures were incubated at ambient temperature for 60 min.
The enzyme reactions were quenched by addition of 10 μL of 12 mM EDTA in 1× LANCE detection solution to each well. The plates were then incubated at ambient temperature for 30 min. Time-resolved fluorescence signal of reactions were read on an EnVision or PHERAstar plate reader with the following parameters: Excitation wavelength=337 nm; emission wavelength (donor)=620 nm; emission wavelength (acceptor)=665 nm.
The raw HTRF data were converted to % active as follows:
% active=(sample−NC)/(PC−NC)*100
where NC is the mean of negative control (reactions without GRK2), and PC is the mean of positive control (reactions with GRK2 but without inhibitor). IC50 values were determined from a 4-parameter fit, using the following equation:
Y=Bottom+(Top−Bottom)/(1+10^((Log IC50−X)*Hill slope))
where X=log10 of the compound concentration.

| Compound | IC50 [µM] |
| --- | --- |
| COc1cccc([C@@H](C)N2C(=O)c3cc(-c4cn[nH]c4)ccc3C23CCC(O)C3)c1 (mixture of isomers) [Compound 173] | 0.092 |
| COc1cccc(C(CO)N2Cc3ccc(-c4cn[nH]c4)cc3C2=O)c1 (racemic) [Compound 38, 2-(2-hydroxy-1-(3-methoxyphenyl)ethyl)-6-(1H-pyrazol-4-yl)isoindolin-1-one] | 0.006 |
| COc1cccc([C@@H](C)N2C(=O)c3cc(-c4cn[nH]c4)ccc3[C@@H]2CC(=O)O)c1 (single isomer, unassigned) [Compound 97] | 0.012 |
| COc1cccc([C@@H](C)N2C(=O)c3cc(-c4cn[nH]c4)ccc3[C@H]2CC(=O)O)c1 (single isomer, unassigned) [Compound 98] | 0.106 |
| COc1cccc(C(CO)N2Cc3ccc(-c4cn[nH]c4)cc3C2=O)c1 (single isomer, unassigned) [Compound 113, 2-[(1S*)-2-hydroxy-1-(3-methoxyphenyl)ethyl]-6-(1H-pyrazol-4-yl)isoindolin-1-one] | 0.003 |
| COc1cccc(C(CO)N2Cc3ccc(-c4cn[nH]c4)cc3C2=O)c1 (single isomer, unassigned) [Compound 172] | 0.148 |
| Cc1ccc(CN2Cc3ccc(-c4cn[nH]c4)cc3C2=O)s1 [Compound 27] | 0.324 |
| O=C1c2cc(-c3cn[nH]c3)ccc2CN1Cc1cccs1 [Compound 28, 6-(1H-Pyrazol-4-yl)-2-(thiophen-2-ylmethyl)isoindolin-1-one] | 0.091 |
| CCOc1cccc([C@@H](C)N2Cc3ccc(-c4cn[nH]c4)cc3C2=O)c1 [Compound 29, 2-[(1R)-1-(3-ethoxyphenyl)ethyl]-6-(1H-pyrazol-4-yl)isoindolin-1-one] | 0.006 |
| COc1cccc([C@@H](C)N2Cc3ccc(-c4cn[nH]c4)c(F)c3C2=O)c1 [Compound 30, 7-fluoro-2-[(1R)-1-(3-methoxyphenyl)ethyl]-6-(1H-pyrazol-4-yl)isoindolin-1-one] | < 0.005 |
| CC(C)NC(=O)c1cccc([C@@H](C)N2Cc3ccc(-c4cn[nH]c4)cc3C2=O)c1 [Compound 31] | 5.38 |
| C[C@H](c1cccc(C(=O)Nc2ccc(F)c(F)c2)c1)N1Cc2ccc(-c3cn[nH]c3)cc2C1=O [Compound 32] | 0.261 |
| COc1cccc(CN2C(=O)c3cc(-c4ccnc(N)n4)ccc3C2CC#N)c1 (stereo not drawn) [Compound 33] | 0.098 |
| O=C(Nc1ccc(F)c(F)c1)c1cccc(CN2Cc3ccc(-c4cn[nH]c4)cc3C2=O)c1 [Compound 34] | 0.006 |
| COc1cccc(CN2Cc3cc(F)c(-c4cn[nH]c4)cc3C2=O)c1 [Compound 35, 5-fluoro-2-[(3-methoxyphenyl)methyl]-6-(1H-pyrazol-4-yl)isoindolin-1-one] | 0.005 |
| COc1cccc(CN2Cc3cc(F)c(-c4ccnc(N)n4)cc3C2=O)c1 [Compound 36] | 0.241 |
| CNC(=O)c1cc(-c2ccc3c(c2)C(=O)N(Cc2cccc(OC)c2)C3)ccn1 [Compound 37, 4-(2-(3-methoxybenzyl)-3-oxoisoindolin-5-yl)-N-methylpicolinamide] | > 20 |
| CCOc1cccc(CN2C(=O)c3cc(-c4c[nH]nn4)ccc3C2(C)C)c1 [Compound 39, 2-(3-Ethoxybenzyl)-3,3-dimethyl-6-(1H-1,2,3-triazol-4-yl)isoindolin-1-one] | 0.196 |

| Compound | IC50 [µM] |
| --- | --- |
| COc1cccc([C@@H](C)N2Cc3ccc(-n4cn[nH]c4=O)cc3C2=O)c1 [Compound 40, (R)-2-(1-(3-methoxyphenyl)ethyl)-6-(5-oxo-1,5-dihydro-4H-1,2,4-triazol-4-yl)isoindolin-1-one] | 0.115 |
| COc1cccc(CN2C(=O)c3cc(-c4cn[nH]c4)ccc3C2(CCO)CCO)c1 [Compound 41, 3,3-bis(2-hydroxyethyl)-2-(3-methoxybenzyl)-6-(1H-pyrazol-4-yl)isoindolin-1-one] | 0.034 |
| COc1cccc(CN2C(=O)c3cc(-c4cn[nH]c4)ccc3C23CCCC3)c1 [Compound 42, 2′-(3-methoxybenzyl)-5′-(1H-pyrazol-4-yl)spiro[cyclopentane-1,1′-isoindolin]-3′-one] | 0.006 |
| O=C1c2cc(-c3cn[nH]c3)ccc2CN1Cc1ccc(F)s1 [Compound 43, 2-((5-Fluorothiophen-2-yl)methyl)-6-(1H-pyrazol-4-yl)isoindolin-1-one] | 0.088 |
| COc1cccc(CN2Cc3ccc(-n4cn[nH]c4=O)cc3C2=O)c1 [Compound 44, 2-(3-methoxybenzyl)-6-(5-oxo-1,5-dihydro-4H-1,2,4-triazol-4-yl)isoindolin-1-one] | 0.382 |
| CCOc1cccc(CN2C(=O)c3cc(-n4cn[nH]c4=O)ccc3C2(C)C)c1 [Compound 45, 2-(3-ethoxybenzyl)-3,3-dimethyl-6-(5-oxo-1,5-dihydro-4H-1,2,4-triazol-4-yl)isoindolin-1-one] | 1.62 |
| COc1cccc(CN2C(=O)c3cc(-c4cn[nH]c4)ccc3C23CCC(O)C3)c1 (stereo not drawn) [Compound 46, 3-hydroxy-2′-(3-methoxybenzyl)-5′-(1H-pyrazol-4-yl)spiro[cyclopentane-1,1′-isoindolin]-3′-one] | 0.007 |
| CNC(=O)c1nccc(-c2ccc3c(c2)C(=O)N(Cc2ccc(OC)cc2)C3)n1 [Compound 47, 4-(2-(4-methoxybenzyl)-3-oxoisoindolin-5-yl)-N-methylpyrimidine-2-carboxamide] | ~10 |
| CCOc1cccc([C@@H](C)N2Cc3ccc(-c4cn[nH]c4)c(F)c3C2=O)c1 [Compound 48] | 0.01 |
| COc1cccc([C@@H](C)N2C(=O)c3cc(-c4cn[nH]c4)ccc3C2CCO)c1 (stereo partly drawn) [Compound 49, 3-(2-hydroxyethyl)-2-((R)-1-(3-methoxyphenyl)ethyl)-6-(1H-pyrazol-4-yl)isoindolin-1-one] | < 0.005 |
| COc1cccc(CN2Cc3ccc(-c4ccnc5[nH]ccc45)cc3C2=O)c1 [Compound 50] | 0.334 |
| COc1ccc(OC)c(C(CO)N2Cc3ccc(-c4cn[nH]c4)cc3C2=O)c1 (stereo not drawn) [Compound 52, 2-(1-(2,5-dimethoxyphenyl)-2-hydroxyethyl)-6-(1H-pyrazol-4-yl)isoindolin-1-one] | 0.742 |
| CCOc1cccc(C(CO)N2Cc3ccc(-c4cn[nH]c4)cc3C2=O)c1 (stereo not drawn) [Compound 53, 2-(2-Hydroxy-1-(3-ethoxyphenyl)ethyl)-6-(1H-pyrazol-4-yl)isoindolin-1-one] | 0.008 |
| COC(=O)COc1cccc(CN2Cc3ccc(-c4ccnc5[nH]ccc45)cc3C2=O)c1 [Compound 54] | 0.292 |
| O=C(O)COc1cccc(CN2Cc3ccc(-c4cn[nH]c4)cc3C2=O)c1 [Compound 55] | 0.011 |
| O=C(O)COc1cccc(CN2Cc3ccc(-c4ccnc5[nH]ccc45)cc3C2=O)c1 [Compound 57] | 2.56 |
| COCC(c1cccc(OC)c1)N1Cc2ccc(-c3cn[nH]c3)cc2C1=O (stereo not drawn) [Compound 59, 2-(2-methoxy-1-(3-methoxyphenyl)ethyl)-6-(1H-pyrazol-4-yl)isoindolin-1-one] | 0.009 |
| COc1cccc(C(COCC(=O)O)N2Cc3ccc(-c4cn[nH]c4)cc3C2=O)c1 (stereo not drawn) [Compound 60, 2-(2-(3-methoxyphenyl)-2-(1-oxo-6-(1H-pyrazol-4-yl)isoindolin-2-yl)ethoxy)acetic acid] | 0.017 |
